From US20250170141A1, “MRGPRX2 MODULATORS AND RELATED METHODS OF TREATMENT” (Escient Pharmaceuticals, Inc., priority 2023, published 2025)

The compounds below were run against T1, human MRGPRX2 (Homo sapiens, UniProt Q96LB1) (assay: MRGPRX2 activity: IP-One Gq HTRF assay in CHO cells, antagonism versus 0.3 uM Cortistatin-14). Conditions: versus 0.3 uM Cortistatin-14 agonist, CHO cells expressing human MRGPRX2, read-out: MRGPRX2 Antagonist Activity.
T1 construct: expressed in transfected cells; host or cells: CHO cells, stably transfected (G418 and Hygromycin B selection)
T1 sequence (Q96LB1 1-330): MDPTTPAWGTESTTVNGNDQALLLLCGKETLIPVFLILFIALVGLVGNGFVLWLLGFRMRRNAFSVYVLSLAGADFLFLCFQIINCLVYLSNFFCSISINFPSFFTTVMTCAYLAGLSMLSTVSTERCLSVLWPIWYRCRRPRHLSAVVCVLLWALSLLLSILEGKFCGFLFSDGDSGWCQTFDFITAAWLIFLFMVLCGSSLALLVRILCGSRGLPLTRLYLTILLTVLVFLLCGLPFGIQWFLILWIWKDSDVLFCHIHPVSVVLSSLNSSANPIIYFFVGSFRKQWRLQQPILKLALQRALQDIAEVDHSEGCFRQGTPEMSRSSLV
Type: cell-based
In short: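 CHO cells stably expressing human MRGPRX2 were treated with a 10-point compound curve (30 uM top, 1:3) plus 0.3 μM Cortistatin-14 in LiCl-containing Tris buffer, pH 8. Incubation was 1 h at 37 °C then 1 h at room temperature; IP-1 was detected by HTRF and IC50 came from the HTRF ratio.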

Row | Compound | IC50
1 | O=S1(=O)N=C(NCc2ccccc2F)Nc2c1cc(F)c(F)c2Cc1ccccc1Cl [Compound 4-6, 5-(2-chlorobenzyl)-6,7-difluoro-3-((2-fluorobenzyl)amino)-4H-benzo[e][1,2,4]thiadiazine 1,1-dioxide] | 100 to 500 nM
2 | O=S1(=O)N=C(NCc2ncccc2F)Nc2c1ccc(F)c2Oc1ccc(Cl)cc1Cl [Compound 1-16, 5-(2,4-dichlorophenoxy)-6-fluoro-3-(((3-fluoropyridin-2-yl)methyl)amino)-4H-benzo[e][1,2,4]thiadiazine 1,1-dioxide] | 100 to 500 nM
3 | Cc1c(F)cccc1CNC1=NS(=O)(=O)c2ccc(F)c(C(C)c3ccccc3F)c2N1 (centres unmarked) [Compound 9-6, 6-fluoro-3-((3-fluoro-2-methylbenzyl)amino)-5-(1-(2-fluorophenyl)ethyl)-4H-benzo[e][1,2,4]thiadiazine 1,1-dioxide] | < 100 nM
4 | O=S1(=O)N=C(NCc2ncccc2Cl)Nc2c1ccc(F)c2Oc1ccccc1Cl [Compound 2-2, 5-(2-chlorophenoxy)-3-(((3-chloropyridin-2-yl)methyl)amino)-6-fluoro-4H-benzo[e][1,2,4]thiadiazine 1,1-dioxide] | < 100 nM
5 | O=S1(=O)N=C(NCc2cccc(F)n2)Nc2c1cc(F)c(F)c2Cc1ccccc1Cl [Compound 4-11, 5-(2-chlorobenzyl)-6,7-difluoro-3-(((6-fluoropyridin-2-yl)methyl)amino)-4H-benzo[e][1,2,4]thiadiazine 1,1-dioxide] | 100 to 500 nM
6 | O=S1(=O)N=C(NCc2ncccc2F)Nc2c(NCc3ccccc3Cl)cccc21 [Compound 17-1, 5-((2-chlorobenzyl)amino)-3-(((3-fluoropyridin-2-yl)methyl)amino)-4H-benzo[e][1,2,4]thiadiazine 1,1-dioxide] | > 2500 nM
7 | CC(c1cccc(F)c1Cl)c1c(F)ccc2c1NC(NCc1ncccc1F)=NS2(=O)=O (centres unmarked) [Compound 7-1, 5-(1-(2-chloro-3-fluorophenyl)ethyl)-6-fluoro-3-(((3-fluoropyridin-2-yl)methyl)amino)-4H-benzo[e][1,2,4]thiadiazine 1,1-dioxide] | < 100 nM
8 | O=S1(=O)N=C(NCc2ccccc2)Nc2c1ccc(F)c2Oc1ccccc1Cl [Compound 1-49, 3-(benzylamino)-5-(2-chlorophenoxy)-6-fluoro-4H-benzo[e][1,2,4]thiadiazine 1,1-dioxide] | < 100 nM
9 | O=S1(=O)N=C(NCc2cnccc2C(F)(F)F)Nc2c1cc(F)c(F)c2Cc1ccccc1Cl [Compound 4-17, 5-(2-chlorobenzyl)-6,7-difluoro-3-(((4-(trifluoromethyl)pyridin-3-yl)methyl)amino)-4H-benzo[e][1,2,4]thiadiazine 1,1-dioxide] | 100 to 500 nM

The next lines start with the values.

Row | IC50 | Compound
10 | < 100 nM | Cc1ccc2c(c1Oc1ccccc1Cl)NC(NCc1ncccc1F)=NS2(=O)=O [Compound 1-4, 5-(2-chlorophenoxy)-3-(((3-fluoropyridin-2-yl)methyl)amino)-6-methyl-4H-benzo[e][1,2,4]thiadiazine 1,1-dioxide]
11 | < 100 nM | O=S1(=O)N=C(NCc2ccncc2Cl)Nc2c(Cc3ccccc3Cl)cccc21 [Compound 12-17, 5-(2-chlorobenzyl)-3-(((3-chloropyridin-4-yl)methyl)amino)-4H-benzo[e][1,2,4]thiadiazine 1,1-dioxide]
12 | < 100 nM | CCC(c1ccccc1F)c1c(F)ccc2c1NC(NCc1ncccc1F)=NS2(=O)=O (centres unmarked) [Compound 20-1, 6-fluoro-5-(1-(2-fluorophenyl)propyl)-3-(((3-fluoropyridin-2-yl)methyl)amino)-4H-benzo[e][1,2,4]thiadiazine 1,1-dioxide]
13 | < 100 nM | COc1cccc(Cc2cccc3c2NC(NCc2ccccc2F)=NS3(=O)=O)c1 [Compound 6-9, 3-((2-fluorobenzyl)amino)-5-(3-methoxybenzyl)-4H-benzo[e][1,2,4]thiadiazine 1,1-dioxide]
14 | < 100 nM | O=S1(=O)N=C(NCc2ncccc2F)Nc2c1ccc(Cl)c2Oc1ccccc1Cl [Compound 1-43, 6-chloro-5-(2-chlorophenoxy)-3-(((3-fluoropyridin-2-yl)methyl)amino)-4H-benzo[e][1,2,4]thiadiazine 1,1-dioxide]
